Experimental findings from article PMC4344250, “Characterization of the Major Light-Harvesting Complexes (LHCBM) of the Green Alga Chlamydomonas reinhardtii” (PLoS ONE, 2015) are described below.

In assay [1] the target is T1, LHCBM9 (Chlamydomonas reinhardtii, UniProt Q8S3T9). Put plainly: in vitro reconstitution, Ni-affinity and sucrose gradient, HPLC of bound pigments. Type of assay: binding. To be noted: C. reinhardtii pigment mix; measured only as Neo+loro sum.
For assay [2], the target named is T2, LHCBM1 (Chlamydomonas reinhardtii, UniProt Q93VE0).
T2 construct: gene LhcII-4
T2 sequence (Q93VE0 entry or part of it): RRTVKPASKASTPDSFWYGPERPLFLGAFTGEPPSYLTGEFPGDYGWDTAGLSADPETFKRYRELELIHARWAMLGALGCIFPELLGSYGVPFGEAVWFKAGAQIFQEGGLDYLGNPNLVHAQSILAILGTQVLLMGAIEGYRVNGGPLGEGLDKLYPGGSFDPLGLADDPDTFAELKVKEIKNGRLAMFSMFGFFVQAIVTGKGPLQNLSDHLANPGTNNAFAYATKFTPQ
The description is as above. The class given is binding. The note with it: C. reinhardtii pigment mix, measured only as Neo+loro sum.

The next assay concerns the target T3, LHCBM2 (Chlamydomonas reinhardtii, UniProt Q93WE0).
T3 construct: gene LhcII-3
The assay is described as above. Type of assay: binding. To be noted: C. reinhardtii pigment mix, Chl a/b 2.5; stoichiometry, not an affinity. The source says:
in vitro reconstitution, Ni-affinity and sucrose gradient, HPLC of bound pigments on LHCBM2

Assay [3] has as its target T1, LHCBM9. The assay is described as above. Type of assay: binding. To be noted: C. reinhardtii pigment mix, Chl a/b 2.5; stoichiometry, not an affinity. The source says:
in vitro reconstitution, Ni-affinity and sucrose gradient, HPLC of bound pigments on LHCBM9

The next assay has as its target T4, LHCBM6 (Chlamydomonas reinhardtii, UniProt A8J287).
T4 construct: gene CHLRE_06g285250v5
Described as above. The class given is binding. To be noted: C. reinhardtii pigment mix, Chl a/b 2.5; stoichiometry, not an affinity. The source says: in vitro reconstitution, Ni-affinity and sucrose gradient, HPLC of bound pigments on LHCBM6

Another assay addresses T5, LHCBM5 (Chlamydomonas reinhardtii, UniProt Q9ZSJ4).
T5 construct: gene Lhcb3
The assay is described as above. Type of assay: binding. To be noted: C. reinhardtii pigment mix, Chl a/b 2.5; stoichiometry, not an affinity. The source says:
in vitro reconstitution, Ni-affinity and sucrose gradient, HPLC of bound pigments on LHCBM5

Assay [4] concerns the target T2, LHCBM1. The description is as above. The note with it: C. reinhardtii pigment mix, Chl a/b 2.5, stoichiometry, not an affinity. The class given is binding. From the text:
in vitro reconstitution, Ni-affinity and sucrose gradient, HPLC of bound pigments on LHCBM1

The target in assay [5] is LHCBM2/7 (type III major light-harvesting complex protein of Chlamydomonas reinhardtii) (Chlamydomonas reinhardtii). Put plainly: sucrose density gradient ultracentrifugation + non-denaturing isoelectrofocusing (composition by SDS-PAGE); thylakoids solubilised with alpha-DM; trimeric band (B3) of the sucrose gradient separated by flat-bed ndIEF (ampholites pH 3.5-5, 0.06% beta-DM, 4 °C, 15 h); fractions run again as single bands on sucrose gradients (0.06% beta-DM, 20 mM Hepes pH 7.5); proteins identified by Tricine SDS-PAGE.

T1 sequence (Q8S3T9 entry or part of it): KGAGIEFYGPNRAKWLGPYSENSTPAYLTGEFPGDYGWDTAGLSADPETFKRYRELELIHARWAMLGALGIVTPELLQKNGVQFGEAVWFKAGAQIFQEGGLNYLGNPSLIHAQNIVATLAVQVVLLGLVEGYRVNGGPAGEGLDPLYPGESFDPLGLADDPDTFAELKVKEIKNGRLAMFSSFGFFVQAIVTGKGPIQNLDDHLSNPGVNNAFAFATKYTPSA
T3 sequence (Q93WE0 entry or part of it): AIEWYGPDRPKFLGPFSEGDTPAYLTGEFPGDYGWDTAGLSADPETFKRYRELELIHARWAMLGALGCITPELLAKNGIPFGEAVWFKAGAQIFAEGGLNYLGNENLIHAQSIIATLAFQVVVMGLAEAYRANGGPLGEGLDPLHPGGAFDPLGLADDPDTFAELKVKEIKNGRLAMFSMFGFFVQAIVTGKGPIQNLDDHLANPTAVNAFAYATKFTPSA
T4 sequence (A8J287 entry or part of it): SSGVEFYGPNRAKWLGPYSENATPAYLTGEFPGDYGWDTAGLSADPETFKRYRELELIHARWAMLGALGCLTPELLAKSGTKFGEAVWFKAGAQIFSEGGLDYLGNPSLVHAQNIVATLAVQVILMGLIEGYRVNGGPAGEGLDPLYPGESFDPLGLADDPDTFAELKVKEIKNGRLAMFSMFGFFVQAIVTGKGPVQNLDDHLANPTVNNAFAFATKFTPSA
T5 sequence (Q9ZSJ4 entry or part of it): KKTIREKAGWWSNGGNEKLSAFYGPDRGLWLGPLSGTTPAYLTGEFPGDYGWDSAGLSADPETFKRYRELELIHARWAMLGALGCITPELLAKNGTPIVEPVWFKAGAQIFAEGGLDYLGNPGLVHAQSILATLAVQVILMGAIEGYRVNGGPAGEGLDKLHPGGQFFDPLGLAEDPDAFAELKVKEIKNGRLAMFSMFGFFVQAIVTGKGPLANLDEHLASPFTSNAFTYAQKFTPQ

Take `CC1=C[C@H](O)CC(C)(C)[C@H]1/C=C/C(C)=C/C=C/C(C)=C/C=C/C=C(C)/C=C/C=C(/C=C/C1=C(C)C[C@@H](O)CC1(C)C)CO` [loroxanthin]: the “in vitro reconstitution, Ni-affinity and sucrose gradient, HPLC of bound pigment” value at LHCBM9 [1] is “All LHCBMs contain lutein, loroxanthin and neoxanthin and a small amount of violaxanthin”; at LHCBM1 [2] (internal carotenoid site (L1 proposed)), “All LHCBMs contain lutein, loroxanthin and neoxanthin and a small amount of violaxanthin”.

Take `CC1=C[C@H](O)CC(C)(C)[C@H]1/C=C/C(C)=C/C=C/C(C)=C/C=C/C=C(C)/C=C/C=C(C)/C=C/C1=C(C)C[C@@H](O)CC1(C)C` [lutein]: the Lut/mon at LHCBM2 is given as 1.43±0.04 mol per monomer (normalised to 14 Chls); on LHCBM9 [3] it was 1.19±0.06 mol per monomer (normalised to 14 Chls); at LHCBM6 it was 1.25±0.01 mol per monomer (normalised to 14 Chls); on LHCBM5, 1.38±0.01 mol per monomer (normalised to 14 Chls); at LHCBM1 [4], 1.32±0.01 mol per monomer (normalised to 14 Chls).

For the molecule `CC(=C/C=C/C(C)=C/C=C/C=C(C)/C=C/C=C(\C)C=C=C1C(C)(C)C[C@H](O)C[C@@]1(C)O)/C=C/[C@@]12O[C@]1(C)C[C@@H](O)CC2(C)C` [neoxanthin], the “in vitro reconstitution, Ni-affinity and sucrose gradient, HPLC of bound pigment” value at LHCBM1 [2] (N1 site suggested) was “All LHCBMs contain lutein, loroxanthin and neoxanthin and a small amount of violaxanthin”.

Consider `CC(/C=C/C=C(C)/C=C/[C@@]12O[C@]1(C)C[C@@H](O)CC2(C)C)=C\C=C\C=C(C)\C=C\C=C(C)\C=C\[C@@]12O[C@]1(C)C[C@@H](O)CC2(C)C` [violaxanthin], for which the Vio/mon was 0.24±0.01 mol per monomer (normalised to 14 Chls) at LHCBM9 [3] and 0.11±0.01 mol per monomer (normalised to 14 Chls) on LHCBM1 [4] (V1 site suggested).

For “LHCBM2/7 (type III major light-harvesting complex protein of Chlamydomonas reinhardtii) (natural protein)”, in assay [5], the stoichiometry N stood at 3.

By stoichiometry N is commonly meant the number of molecules, sites or subunits per partner or assembly.
